Measurements taken from patent publication US20020182694A1, “Novel gene and polypeptide which opposes the Fas pathway” (priority 2001, published 2002).
Each block holds one molecule with its values, some of them ahead of it.

Legend:
HeLa cells [1] = assay: Fas induced killing of HeLa cells treated with pharmacological agents, count of viable trypan blue excluding cells; type: cell-based, human; conditions: for effect on Fas induced PCD of HeLa cells, in words (viable cell count): anti-Fas antibody treated HeLa cells, NAC: 50 ng/ml anti-Fas, 5 days, FIG. 6, 8E, 8G, 8H
Experimental: HeLa cells, 1.6×10^5 cells/well were plated in 6 wells plates. 20-24 hours later cells were treated with various concentrations of sulfinpyrazone (Sigma/Aldrich) in 1% DMSO for 15 minutes prior to the addition of 200 ng/ml anti-Fas antibody (clone CH-11, Kamiya Biomedical Company). The number of viable, trypan blue (Gibco/BRL) excluding cells that remained attached to the plate following rinsing with PBS was counted 17 hours post treatment. […]

HeLa cells [2] = assay: Apoptotic index (DAPI staining) of HeLa cells treated with anti-Fas antibody; type: cell-based, human
Experimental: To generate HeLa cells that over-express Nrf2, the human Nrf2 cDNA (Moi et al. 1994) was cloned into the retrovirus expression vector pBABEpuro (Morgenstern and Land 1990) by standard methods. The plasmid was transiently transfected into […] and virus was collected at 36, 48, 60 and 72 hours post transfection. At each time point, freshly collected virus stock was filtered through a […], mixed with […] polybrene (Sigma/Aldrich) and applied to HeLa cells. 24 hours after the last addition of the virus, the cells were subjected to selection in […] Puromycin (Sigma/Aldrich). The pool of Puromycin resistant colonies was expanded. […] Apoptotic index was calculated as the ratio of number of dead cells (containing condensed and/or fragmented chromosomes) to the total number of cells. Average apoptotic index calculated from ten fields from duplicate wells is presented.
For bioassays, HeLa cells, at 8.3×10^4 cells/well were plated in 12 wells plates. […] 20 hours later the apoptotic index of treated cells was determined as described for the Nrf2 bioassays.
HeLa cells, 1.6×10^5 cells/well were plated in 6 wells plates. […] The number of viable, trypan blue (Gibco/BRL) excluding cells that remained attached to the plate following rinsing with PBS was counted 17 hours post treatment. Alternatively, the apoptotic index of treated cells was determined as described for the Nrf2 bioassays.

[3] = target: Fas/CD95/Apo-1 on HeLa cells (human) (UniProt P25445); assay: cell-based or functional assay
Sequence of UniProt P25445 (P25445 26-335): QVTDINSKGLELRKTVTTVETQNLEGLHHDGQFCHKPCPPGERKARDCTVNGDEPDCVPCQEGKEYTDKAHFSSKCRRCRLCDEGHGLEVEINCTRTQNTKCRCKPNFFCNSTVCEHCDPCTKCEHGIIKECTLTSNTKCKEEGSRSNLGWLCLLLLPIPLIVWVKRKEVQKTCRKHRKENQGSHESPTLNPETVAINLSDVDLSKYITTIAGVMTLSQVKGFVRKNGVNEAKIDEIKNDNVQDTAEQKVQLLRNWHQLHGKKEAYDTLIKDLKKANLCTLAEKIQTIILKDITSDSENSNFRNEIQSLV

Molecule: NCCNS(=O)(=O)c1ccc(Cl)c2ccncc12 [CKI-7, N-(2-aminoethyl)-5-chloroisoquinoline-8-sulfonamide]
fold more sensitive to FAS induced PCD than the untreated cells (HeLa cells [1]; CKI-7 in 1% DMSO added an hour before 200 ng/ml anti-FAS antibody, counted 17 hours post treatment, FIG. 6): 3.9 fold
effect on Fas induced PCD of HeLa cells, in words (viable cell count) (HeLa cells [1]): sensitizes

Molecule: O=c1oc2ccccc2c(O)c1Cc1c(O)c2ccccc2oc1=O [Dicumarol]
fold more sensitive to Fas induced killing compared to cells treated with vehicle, measured by the number of viable cells (HeLa cells [1]; 100 uM Dicumarol, 200 ng/ml anti-Fas antibody, counted 17 hours post treatment, FIG. 8E): 2.8 fold
effect on Fas induced PCD of HeLa cells, in words (viable cell count) (HeLa cells [1]): sensitizes
killing (apoptotic index) in cells treated with anti-Fas antibody and Dicumarol (HeLa cells [2]; 100 uM Dicumarol, 200 ng/ml anti-Fas antibody, vehicle (0 uM) approximately 25%, FIG. 8F): approximately 100%
effect on Fas induced PCD of HeLa cells, in words (apoptotic index) (HeLa cells [2]; anti-Fas antibody treated HeLa cells, FIG. 8C, 8D, 8F legends): sensitizes

Molecule: CC(=O)N[C@@H](CS)C(=O)O [NAC, N-acetyl Cysteine]
effect on Fas induced PCD of HeLa cells, in words (viable cell count) (HeLa cells [1]): strongly protects
effect on Fas induced PCD of HeLa cells, in words (viable cell count) (HeLa cells [1]; listed as N-acetyl cysteine): protects

Molecule: O=C1C(CC[S+]([O-])c2ccccc2)C(=O)N(c2ccccc2)N1c1ccccc1 (stereo not shown) [sulfinpyrazone]
sensitization to Fas induced killing compared to treatment with vehicle alone (HeLa cells [1]; 2 mM sulfinpyrazone, 200 ng/ml anti-Fas antibody, counted 17 hours post treatment, FIG. 8G): approximately 4 fold

apoptotic index (DAPI staining), HeLa cells infected with vector alone (Control-1) [3]: 89%
apoptotic index (DAPI staining), HeLa cells infected with vector alone (Control-2) [3]: 87%
apoptotic index (DAPI staining), HeLa cells with vehicle [3]: 25%
apoptotic index (DAPI staining), HeLa cells with vehicle (0 uM Dicumarol) [3]: 25%
Molecule: Anti-Fas antibody (clone CH-11, Kamiya Biomedical Company, catalog number MC-060)
